Data as given in patent publication US7811760B2, “Vector and method for detecting the change in transcription amount” (priority 2006, dated 2010).

Target: T1, aryl hydrocarbon receptor (Rattus norvegicus, UniProt P41738, Q794H)
T1 construct: The SD-line rat AhR gene-coding region was amplified from the reverse-transcribed sample by means of PCR; V5-His (C-terminal tag of vector pcDNA4/V5-His B); expressed in transfected cells; host or cells: mouse neuroblastoma Neuro2a, transient transfection with LIPOFECTAMINE 2000
T1 sequence (P41738 10-853 Q794H): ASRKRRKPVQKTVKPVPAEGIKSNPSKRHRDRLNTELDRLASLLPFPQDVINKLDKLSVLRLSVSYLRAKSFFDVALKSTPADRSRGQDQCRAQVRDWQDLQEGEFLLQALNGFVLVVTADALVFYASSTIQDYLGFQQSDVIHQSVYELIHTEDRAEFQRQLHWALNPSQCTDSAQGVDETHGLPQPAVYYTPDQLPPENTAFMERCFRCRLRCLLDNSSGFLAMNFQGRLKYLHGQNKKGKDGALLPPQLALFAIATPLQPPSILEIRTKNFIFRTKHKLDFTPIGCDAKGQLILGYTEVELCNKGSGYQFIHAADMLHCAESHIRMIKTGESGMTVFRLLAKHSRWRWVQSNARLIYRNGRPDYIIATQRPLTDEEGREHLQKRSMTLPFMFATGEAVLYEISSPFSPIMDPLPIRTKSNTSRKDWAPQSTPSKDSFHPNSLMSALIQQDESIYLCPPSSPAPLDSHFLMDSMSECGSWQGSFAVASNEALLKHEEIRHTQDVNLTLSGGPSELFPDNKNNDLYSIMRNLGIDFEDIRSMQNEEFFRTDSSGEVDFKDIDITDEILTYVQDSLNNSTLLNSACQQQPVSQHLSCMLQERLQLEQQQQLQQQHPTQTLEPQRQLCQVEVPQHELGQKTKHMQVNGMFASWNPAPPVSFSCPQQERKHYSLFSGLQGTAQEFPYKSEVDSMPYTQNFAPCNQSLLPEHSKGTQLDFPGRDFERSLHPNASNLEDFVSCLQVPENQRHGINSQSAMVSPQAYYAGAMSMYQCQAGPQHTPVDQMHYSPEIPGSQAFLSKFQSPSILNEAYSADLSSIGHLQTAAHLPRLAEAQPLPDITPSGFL
Assay: Reporter gene assay in Neuro2a with pTHE100/Luc, pTHE100×3/Luc and pTHE100×5/Luc (tandem copies of SEQ ID No: 3)
Format: cell-based, SD-line rat
Description: The terminal of the “region of SEQ ID No: 3 amplified by PCR in Example 6” was phosphorylated with 5′-polynucleotide kinase (Takara Bio Inc.), and then, the regions of SEQ ID No: 3 were ligated in tandem with each other by using a ligation kit (Toyobo). The ligated DNA fragment was digested with restriction enzymes KpnI and NheI, and subjected to agarose gel electrophoresis. DNA fragment consisting of three copies of the regions of SEQ ID No: 3 linked in tandem and DNA fragment consisting of five copies of the regions of SEQ ID No: 3 linked in tandem were excised from the gel based on their molecular weight, and purified with a QIAQUICK Gel Extraction Kit. These DNA fragments were digested with KpnI and NheI, and incorporated into a vector pTHE100/Luc containing no region of SEQ ID No: 3, to prepare a recombinant vector pTHE100×3/Luc containing three tandem copies of the regions of SEQ ID No: 3, and a recombinant vector pTHE100×5/Luc containing five tandem copies of the regions of SEQ ID No: 3 (FIG. 7A). pTH100/Luc, pTHE100×3/Luc, and pTHE100×5/Luc were introduced into Neuro2a by a method similar to that in Example 3. The obtained cell was exposed to 10 nM TCDD, and then, the change in the expression amount of the reporter gene was examined (FIG. 7B).
Further, the transcriptional response to the TCDD concentration and the transcriptional response to dioxin congeners were evaluated by using the pTHE100×3/Luc. The transcriptional response to the TCDD concentration was determined by a method similar to that in Example 3, specifically, by incorporating the vector pTHE100×3/Luc into Neuro2a, exposing the obtained cell to 1 to 10,000 μM of TCDD, and measuring the change in the expression amount of the reporter gene. […] On the other hand, the transcriptional response to dioxin congeners was determined by a method similar to that in Example 3, specifically, by incorporating the vector pTHE100×3/Luc into Neuro2a, exposing the obtained cell to eight kinds of dioxin congeners including TCDD, and measuring the activity of these congeners on transcriptional regulation. […]

## Clc1cc2c(cc1Cl)Oc1cc(Cl)c(Cl)cc1O2 [TCDD, 2,3,7,8-tetrachlorodibenzo-p-dioxine]
10 nM TCDD, pTH100/Luc, pTHE100×5/Luc
  increase in the activity of the test substance on transcriptional regulation, by number of copies of SEQ ID No: 3: highest with the vector pTHE100×3/Luc
Eight kinds of dioxin congeners tested
  influence of dioxin congeners on transcriptional regulation: exerted influence on transcriptional regulation
Exposure 1 to 10,000 μM of TCDD (so in the source)
  expression amount of the reporter gene versus TCDD concentration: increased statistically significantly with the increase in TCDD concentration up to 10 μM
